Patent US20260285853A1, “COMPOUNDS AND METHODS FOR MODULATING SPLICING” (REMIX THERAPEUTICS INC., priority 2023, published 2026)

Experiments:
Type in all cases: cell-based
HTT mRNA [1] = experiment: Splicing RT-qPCR assay, canonical (CJ) and alternative (AJ) junction mRNA, K562 cells; settings: Homo sapiens, K562.3 cells, 24 hours; for AC50: read-out: HTT AJ (AC50, increase in AJ mRNA); for IC50: read-out: HTT CJ (IC50, decrease in CJ mRNA)
Description: (§1) Compounds described herein were used to modulate RNA transcript abundance in cells. The expression of a target mRNA was measured by detecting the formation of an exon-exon junction in the canonical transcript (CJ). A compound mediated exon-inclusion event was detected by observing an increase in formation of a new junction with an alternative exon (AJ). Real-time qPCR assays were used to detect these splicing switches and interrogate the potency of various compounds towards different target genes. A high-throughput real time quantitative PCR (RT-qPCR) assay was developed to measure these two isoforms of the mRNA (CJ and AJ) for exemplary genes, such as HTT, SMN2, and MYB, together with a control housekeeping gene, GAPDH or GUSB or PPIA, used for normalization. Briefly, the A673 or K562 cell line was treated with various compounds described herein (e.g., compounds of Formula (I)). After treatment, the levels of the HTT, MYB, or SMN2 mRNA targets were determined from each sample of cell lysate by cDNA synthesis followed by qPCR.
(§2) • Cells-to-CT 1-step kit: ThermoFisher A25602, Cells-to-CT lysis reagent: ThermoFisher 4391851C, TaqMan™ Fast Virus 1-Step Master Mix: ThermoFisher 4444436 • GAPDH: VIC-PL, ThermoFisher 4326317E (Assay: Hs99999905_m1)—used for K562/suspension cell lines • GUSB: VIC-PL, ThermoFisher 4326320E (Assay: Hs99999908_m1)—used for K562/suspension cell lines • PPIA: VIC-PL, ThermoFisher 4326316E (Assay: Hs99999904_m1)—used for A673/adherent cell lines
(§3) The K562 cell line was cultured in IMDM with 10% FBS. For K562, cells were diluted with full growth media and plated in either a 96-well plate (50,000 cells in 50 uL media per well) or a 384-well plate (8,000-40,000 cells in 45 uL media per well). An 11-point 3-fold serial dilution of the compounds were made in DMSO then diluted in media in an intermediate plate. Compound was transferred from the intermediate plate to the cell plate with the top dose at a final concentration of 10 uM in the well. Final DMSO concentration was kept at or below 0.25%. Final volume was 100 uL for 96-well plate and 50 uL for 384-well plate. The cell plate was then placed in an incubator at 37° C. with 5% CO2 for 24 hours.
(§4) The cells were then gently washed with 50 uL-100 uL cold PBS before proceeding to addition of lysis buffer. 30 uL-50 uL of room temperature lysis buffer with DNAse I (and optionally RNAsin) was added to each well. Cells were shaken/mixed thoroughly at room temperature for 5-10 minutes for lysis to take place and then 3 uL-5 uL of room temperature stop solution was added and wells were shaken/mixed again. After 2-5 minutes, the cell lysate plate was transferred to ice for RT-qPCR reaction setup. The lysates could also be frozen at −80° C. for later use.
(§5) In some cases, a direct lysis buffer was used. An appropriate volume of 3× lysis buffer (10 mM Tris, 150 mM NaCl, 1.5%-2.5% Igepal and 0.1-1 U/uL RNAsin, pH 7.4) was directly added to either K562 or A673 cells in media and mixed by pipetting 3 times. The plates were then incubated at room temperature with shaking/rocking for 20-50 minutes to allow for lysis to take place. After this time, the cell lysate plate was transferred to ice to set up for the RT-qPCR reactions. The lysates could also be frozen at −80° C. for later use.
(§6) To set up 10 uL RT-qPCR reactions, cell lysates were transferred to 384-well qPCR plates containing the master mix according to the table below. The plates were sealed, gently vortexed, and spun down before the run. The volumes were adjusted accordingly in some instances where the reaction was carried in 20 uL. The table below summarizes the components of the RT-qPCR reactions:
(§7) The RT-qPCR reaction was performed using a QuantStudio (ThermoFisher) under the following fast cycling conditions. All samples and standards were analyzed at least in duplicate. In some instances, bulk room temperature (RT) step of 5-10 minutes was completed for all plates before proceeding with qPCR. […]

MYB mRNA [2] = experiment: as above; settings: Homo sapiens, K562.3 cells, 24 hours; for AC50: read-out: MYB AJ (AC50, increase in AJ mRNA); for IC50: read-out: MYB CJ (IC50, decrease in CJ mRNA)
Description: as §1, §2, §3, §4, §5, §6, §7

MYB mRNA [3] = experiment: Splicing RT-qPCR assay (THP), Table 2A; settings: Table 2A (THP); for AC50: AJ mRNA increase, read-out: MYB AJ (increase in alternative junction mRNA, AC50); for IC50: CJ mRNA decrease, read-out: MYB CJ (decrease in canonical junction mRNA, IC50)
HTT mRNA [4] = experiment: Gene panel canonical junction qPCR assay, decrease in CJ mRNA, Table 3; settings: decrease in canonical junction (CJ) mRNA, gene panel qPCR, Table 3
In short: (§8)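 Canonical exon-junction (CJ) transcript measured by 5′ nuclease RT-qPCR, normalized to GAPDH, GUSB or PPIA and to DMSO control (2^(−ΔΔCt)). A673 or K562 cells treated 24 h at 37° C with an 11-point 3-fold dilution series, top 10 uM, DMSO ≤0.25%. IC50 from 4-parameter logistic fit of percentage CJ decrease.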

MYB mRNA [5] = experiment: as above; settings: decrease in canonical junction (CJ) mRNA, gene panel qPCR, Table 3
In short: as §8

SMN2 mRNA = experiment: as above; settings: decrease in canonical junction (CJ) mRNA, gene panel qPCR, Table 3
In short: as §8

[6] = tested on: SH-SY5Y (human neuroblastoma) cells; experiment: Cell viability, Cell Titer Glo 2.0 assay; settings: read-out: Viability SHSY5Y.3 GI50
In short: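 SH-SY5Y cells were exposed to serially diluted compounds in IMDM with 10% FBS and 0.1% DMSO for 72 hours at 37° C., 5% CO2. Viability was measured by CellTiter-Glo 2.0 luminescence, with medium-only wells as blank.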

| SMILES | AC50 (HTT mRNA [1]) | IC50 (HTT mRNA [1]) | AC50 (MYB mRNA [2]) | IC50 (MYB mRNA [2]) | AC50 (MYB mRNA [3]) | IC50 (MYB mRNA [3]) | IC50 (HTT mRNA [4]) | IC50 (MYB mRNA [5]) | IC50 (SMN2 mRNA) | GI50 [6] |
| --- | --- | --- | --- | --- | --- | --- | --- | --- | --- | --- |
| Cc1cn2cc(NC(=O)c3ccc(N4CC[C@@H](NCC5COC5)C4)c4cn(C)nc34)cc(F)c2n1 [Compound 104, N-(8-fluoro-2-methylimidazo[1,2-a]pyridin-6-yl)-2-methyl-4-[(3R)-3-[(oxetan-3-ylmethyl)amino]pyrrolidin-1-yl]indazole-7-carboxamide] | 1000 to 10000 nM | 1000 to 10000 nM | < 100 nM | < 100 nM | < 100 nM | < 100 nM | 1000 to 10000 nM | < 100 nM | < 100 nM | 100 to 1000 nM |
| Cc1cn2cc(NC(=O)c3ccc(N4CC[C@H](NCC(C)(C)O)C4)c4cn(C)nc34)cc(F)c2n1 [Compound 132, N-(8-fluoro-2-methyl-imidazo[1,2-a]pyridin-6-yl)-4-[(3S)-3-[(2-hydroxy-2-methylpropyl)amino]-pyrrolidin-1-yl]-2-methyl-indazole-7-carboxamide] | > 10000 nM | 1000 to 10000 nM | 100 to 1000 nM | 100 to 1000 nM | 100 to 1000 nM | 100 to 1000 nM | 1000 to 10000 nM | 100 to 1000 nM | < 100 nM | 1000 to 10000 nM |
| CNC12CC(C1)N(c1ccc(C(=O)Nc3cc(F)c4nc(C)cn4c3)c3nn(C)cc13)C2 [Compound 135, N-(8-fluoro-2-methyl-imidazo[1,2-a]pyridin-6-yl)-2-methyl-4-[4-(methylamino)-2-azabicyclo[2.1.1]hexan-2-yl]-indazole-7-carboxamide] | 1000 to 10000 nM | 100 to 1000 nM | 100 to 1000 nM | 100 to 1000 nM | < 100 nM | 100 to 1000 nM | 100 to 1000 nM | 100 to 1000 nM | < 100 nM | 100 to 1000 nM |
| CCNC12CC(C1)N(c1ccc(C(=O)Nc3cc(F)c4nc(C)cn4c3)c3nn(C)cc13)C2 [Compound 136, 4-[4-(ethylamino)-2-azabicyclo-[2.1.1]hexan-2-yl]N-(8-fluoro-2-methylimidazo[1,2-a]pyridin-6-yl)-2-methyl-indazole-7-carboxamide] | 1000 to 10000 nM | 1000 to 10000 nM | 100 to 1000 nM | 100 to 1000 nM | 100 to 1000 nM | 100 to 1000 nM | 1000 to 10000 nM | 100 to 1000 nM | < 100 nM | 100 to 1000 nM |
| CN[C@H]1CCN(c2c(OC)cc(C(=O)Nc3cc(F)c4nc(C)cn4c3)c3nn(C)cc23)C1 [Compound 137, N-(8-fluoro-2-methyl-imidazo[1,2-a]pyridin-6-yl)-5-methoxy-2-methyl-4-[(3S)-3-(methylamino)pyrrolidin-1-yl]indazole-7-carboxamide] | > 10000 nM | > 10000 nM | > 10000 nM | > 10000 nM | > 10000 nM | > 10000 nM | > 10000 nM | > 10000 nM | 100 to 1000 nM | 1000 to 10000 nM |
| CN[C@@H]1CCN(c2ccc(C(=O)Nc3cc(F)c4nn(C)cc4c3)c3nn(C)cc23)C1 [Compound 140, N-(7-fluoro-2-methyl-indazol-5-yl)-2-methyl-4-[(3R)-3-(methylamino)pyrrolidin-1-yl]indazole-7-carboxamide] | 1000 to 10000 nM | 1000 to 10000 nM | 100 to 1000 nM | 100 to 1000 nM | 100 to 1000 nM | 100 to 1000 nM | 1000 to 10000 nM | 100 to 1000 nM | < 100 nM | 1000 to 10000 nM |
| CCN[C@H]1CCN(c2cc(O)c(C(=O)Nc3cc(F)c4nc(C)cn4c3)c3nn(C)cc23)C1 [Compound 143, 4-[(3S)-3-(ethylamino)pyrrolidin-1-yl]-N-(8-fluoro-2-methyl-imidazo[1,2-a]pyridin-6-yl)-6-hydroxy-2-methyl-indazole-7-carboxamide] | 1000 to 10000 nM | 1000 to 10000 nM | < 100 nM | < 100 nM | < 100 nM | < 100 nM | 1000 to 10000 nM | < 100 nM | < 100 nM | 100 to 1000 nM |
| CCN[C@H]1CCN(c2cc(OC)c(C(=O)Nc3cc(F)c4nc(C)cn4c3)c3nn(C)cc23)C1 [Compound 146] | > 10000 nM | > 10000 nM | > 10000 nM | > 10000 nM | > 10000 nM | > 10000 nM | > 10000 nM | > 10000 nM | 1000 to 10000 nM | > 10000 nM |
| Cc1cn2cc(NC(=O)c3ccc(N4CCC5NCCC5C4)c4cn(C)nc34)cc(F)c2n1 (stereo not shown) [Compound 169, N-(8-fluoro-2-methyl-imidazo[1,2-a]-pyridin-6-yl)-2-methyl-4-(octahydro-pyrrolo[3,2-c]pyridin-5-yl)indazole-7-carboxamide 2,2,2-trifluoroacetate] | 1000 to 10000 nM | 1000 to 10000 nM | 100 to 1000 nM | 100 to 1000 nM | < 100 nM | 100 to 1000 nM | 1000 to 10000 nM | 100 to 1000 nM | < 100 nM | 1000 to 10000 nM |
| Cc1cn2cc(NC(=O)c3c(F)cc(N4CCNCC4)c4c3CN(C)C4)cc(F)c2n1 [Compound 230, 5-fluoro-N-(8-fluoro-2-methyl-imidazo[1,2-a]pyridin-6-yl)-2-methyl-7-piperazin-1-yl-isoindoline-4-carboxamide] | > 10000 nM | > 10000 nM | > 10000 nM | > 10000 nM | – | – | > 10000 nM | > 10000 nM | 1000 to 10000 nM | > 10000 nM |
| CCNC1CCN(c2ccc(C(=O)Nc3cc(F)c4nc(C)cn4c3)c3[nH]ncc23)CC1 [Compound 266, 4-[4-(ethylamino)piperidin-1-yl]-N-(8-fluoro-2-methyl-imidazo[1,2-a]pyridin-6-yl)-1H-indazole-7-carboxamide] | > 10000 nM | > 10000 nM | 100 to 1000 nM | 100 to 1000 nM | – | – | > 10000 nM | 100 to 1000 nM | < 100 nM | 1000 to 10000 nM |
